Experimental data reported in patent US12428406B2 (PMV Pharmaceuticals, Inc., priority 2019, dated 2025).

Target: T1, p53 Y220C (Homo sapiens, UniProt P04637, Y220C)
T1 construct: The recombinant protein was a truncation mutant containing only amino acids 94-312 of p53; made in house; host or cells: E. coli
Assay: In vitro DNA binding activity assay (HTRF / TR-FRET): stabilization of p53 Y220C and increase of its DNA binding activity
Format: biochemical
Conditions: recombinant His-tagged p53 Y220C DNA binding domain (aa 94-312), biotin-labeled consensus DNA, incubated at 27° C. or 29° C. for 60 min
In short: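 E. coli His-p53 Y220C + biotin consensus DNA; anti-His-APC/SA-Eu TR-FRET. SC150 vs no-compound.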

T1 sequence (P04637 94-312, change not shown): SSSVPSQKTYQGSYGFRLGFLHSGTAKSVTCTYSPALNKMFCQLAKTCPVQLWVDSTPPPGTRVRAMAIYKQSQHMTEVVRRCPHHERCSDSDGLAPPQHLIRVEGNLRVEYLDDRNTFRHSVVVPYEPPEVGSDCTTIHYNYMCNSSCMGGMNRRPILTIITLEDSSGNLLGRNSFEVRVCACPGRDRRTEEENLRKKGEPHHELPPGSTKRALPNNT

| SC150 (concentration of the compound required to increase the DNA binding activity by 50%) | SMILES |
| --- | --- |
| ++ (++ = 0.05 μM ≤ SC150 < 0.1 μM) | COCC(O)CN1CCC(Nc2cccc3c2cc(C#CCNc2ccc(S(C)(=O)=O)cc2OC)n3CC(C)(F)F)CC1 (centres unmarked) [Compound 712A, 1-(4-{[1-(2,2-difluoropropyl)-2-{3-[(4-methanesulfonyl-2-methoxyphenyl)amino]prop-1-yn-1-yl}-1H-indol-4-yl]amino}piperidin-1-yl)-3-methoxypropan-2-ol] |
| + (+ = 0 μM ≤ SC150 < 0.05 μM) | COCC(O)CN1CCC(Nc2cccc3c2cc(C#CCNc2ccc(S(C)(=O)=O)cc2Cl)n3CC(F)(F)F)CC1 (centres unmarked) [Compound 713A, 1-{4-[(2-{3-[(2-chloro-4-methanesulfonylphenyl)amino]prop-1-yn-1-yl}-1-(2,2,2-trifluoroethyl)-1H-indol-4-yl)amino]piperidin-1-yl}-3-methoxypropan-2-ol] |
| ++++ (++++ = 0.2 μM ≤ SC150 < 1 μM) | COCC(O)CN1CCC(Nc2cccc3c2cc(C#CCNc2c(F)cc(S(C)(=O)=O)cc2OC)n3CC(F)(F)F)CC1 (centres unmarked) [Compound 714A] |
| + (+ = 0 μM ≤ SC150 < 0.05 μM) | CCC(=O)O[C@H](COC)CN1CCC(Nc2cccc3c2cc(C#CCNc2ccc(S(C)(=O)=O)cc2OC)n3CC(F)(F)F)CC1 [Compound 715A, (2S)-1-{4-[(2-{3-[(4-methanesulfonyl-2-methoxyphenyl)amino]prop-1-yn-1-yl}-1-(2,2,2-trifluoroethyl)-1H-indol-4-yl)amino]piperidin-1-yl}-3-methoxypropan-2-yl propanoate] |
| ++ (++ = 0.05 μM ≤ SC150 < 0.1 μM) | COCC(O)CN1CCC(Nc2cccc3c2cc(C#CCNc2ccc(Cl)cc2OC)n3CC(F)(F)F)CC1 (centres unmarked) [Compound 716A, 1-{4-[(2-{3-[(4-chloro-2-methoxyphenyl)amino]prop-1-yn-1-yl}-1-(2,2,2-trifluoroethyl)-1H-indol-4-yl)amino]piperidin-1-yl}-3-methoxypropan-2-ol] |
| +++ (+++ = 0.1 μM ≤ SC150 < 0.2 μM) | COc1cc(S(C)(=O)=O)ccc1NCC#Cc1cc2c(NC3CCN(c4nc(C)cs4)CC3)cccc2n1CC(F)(F)F [Compound 719A] |
| + (+ = 0 μM ≤ SC150 < 0.05 μM) | COc1cc(S(C)(=O)=O)ccc1NCC#Cc1cc2c(NC3CCN(C4CC4)CC3)cccc2n1CC(F)(F)F [Compound 720A, N-(1-cyclopropylpiperidin-4-yl)-2-{3-[(4-methanesulfonyl-2-methoxyphenyl)amino]prop-1-yn-1-yl}-1-(2,2,2-trifluoroethyl)-1H-indol-4-amine] |
| + (+ = 0 μM ≤ SC150 < 0.05 μM) | COc1cc(C(=O)O)ccc1NCC#Cc1cc2c(NC3CCN(C4CC4)CC3)cccc2n1CC(F)(F)F [Compound 721A, 4-[(3-{4-[(1-cyclopropylpiperidin-4-yl)amino]-1-(2,2,2-trifluoroethyl)-1H-indol-2-yl}prop-2-yn-1-yl)amino]-3-methoxybenzoic acid] |
| + (+ = 0 μM ≤ SC150 < 0.05 μM) | COc1cc(S(C)(=O)=O)ccc1NCC#Cc1cc2c(NC3CCN([C@@H]4CCOC4)CC3)cccc2n1CC(F)(F)F [Compound 722A, 2-{3-[(4-methanesulfonyl-2-methoxyphenyl)amino]prop-1-yn-1-yl}-N-{1-[(3R)-oxolan-3-yl]piperidin-4-yl}-1-(2,2,2-trifluoroethyl)-1H-indol-4-amine] |
| + (+ = 0 μM ≤ SC150 < 0.05 μM) | COc1cc(S(C)(=O)=O)ccc1NCC#Cc1cc2c(NC3CCN([C@H]4CCOC4)CC3)cccc2n1CC(F)(F)F [Compound 723A, 2-{3-[(4-methanesulfonyl-2-methoxyphenyl)amino]prop-1-yn-1-yl}-N-{1-[(3S)-oxolan-3-yl]piperidin-4-yl}-1-(2,2,2-trifluoroethyl)-1H-indol-4-amine] |
| + (+ = 0 μM ≤ SC150 < 0.05 μM) | COc1cc(C(=O)O)ccc1NCC#Cc1cc2c(NC3CCN(C4CCOCC4)CC3)cccc2n1CC(F)(F)F [Compound 724A, 3-methoxy-4-{1[3-(4-{[1-(oxan-4-yl)piperidin-4-yl]amino}-1-(2,2,2-trifluoroethyl)-1H-indol-2-yl)prop-2-yn-1-yl]amino}benzoic acid] |
| + (+ = 0 μM ≤ SC150 < 0.05 μM) | CC(=O)N1CCC(Nc2cccc3c2cc(C#CCNc2ccc(S(C)(=O)=O)cc2OCC#N)n3CC(F)(F)F)CC1 [Compound 729A, 2-{2-[(3-{4-[(1-acetylpiperidin-4-yl)amino]-1-(2,2,2-trifluoroethyl)-1H-indol-2-yl}prop-2-yn-1-yl)amino]-5-methanesulfonylphenoxy}acetonitrile] |
| + (+ = 0 μM ≤ SC150 < 0.05 μM) | COc1cc(S(=O)(=O)N(C)C)ccc1NCC#Cc1cc2c(NC3CCN(C(=O)CO)CC3)cccc2n1CC(F)(F)F [Compound 730A] |
| + (+ = 0 μM ≤ SC150 < 0.05 μM) | CS(=O)(=O)c1ccc(NCC#Cc2cc3c(NC4CCN(C(=O)CO)CC4)cccc3n2CC(F)(F)F)c(O)c1 [Compound 731A, 2-hydroxy-1-{4-[(2-{3-[(2-hydroxy-4-methanesulfonylphenyl)amino]prop-1-yn-1-yl}-1-(2,2,2-trifluoroethyl)-1H-indol-4-yl)amino]piperidin-1-yl}ethan-1-one] |
| + (+ = 0 μM ≤ SC150 < 0.05 μM) | COc1cc(S(N)(=O)=O)ccc1NCC#Cc1cc2c(N[C@H]3CCN(C(C)=O)[C@@H](C)C3)cccc2n1CC(F)(F)F [Compound 740A, 4-{[3-(4-{[(2S, 4S)-1-acetyl-2-methylpiperidin-4-yl]amino}-1-(2,2,2-trifluoroethyl)-1H-indol-2-yl)prop-2-yn-1-yl]amino}-3-methoxybenzene-1-sulfonamide] |
| + (+ = 0 μM ≤ SC150 < 0.05 μM) | COCC(=O)N1CCC(Nc2cccc3c2cc(C#CCNc2ccc(S(C)(=O)=O)cc2OC)n3CC(F)(F)F)CC1 [Compound 741A, 1-{4-[(2-{3-[(4-methanesulfonyl-2-methoxyphenyl)amino]prop-1-yn-1-yl}-1-(2,2,2-trifluoroethyl)-1H-indol-4-yl)amino]piperidin-1-yl}-2-methoxyethan-1-one] |
| + (+ = 0 μM ≤ SC150 < 0.05 μM) | COc1cc(S(C)(=O)=O)ccc1NCC#Cc1cc2c(NC3CCN(C(=O)C(C)O)CC3)cccc2n1CC(F)(F)F (centres unmarked) [Compound 742A] |
| + (+ = 0 μM ≤ SC150 < 0.05 μM) | COc1cc(S(N)(=O)=O)ccc1NCC#Cc1cc2c(NC3CCN(C(=O)C(C)O)CC3)cccc2n1CC(F)(F)F (centres unmarked) [Compound 745A] |
| + (+ = 0 μM ≤ SC150 < 0.05 μM) | COc1cc(S(C)(=O)=O)ccc1NCC#Cc1cc2c(NC3CCN(C(=O)CC#N)CC3)cccc2n1CC(F)(F)F [Compound 746A] |
| + (+ = 0 μM ≤ SC150 < 0.05 μM) | COc1cc(S(N)(=O)=O)ccc1NCC#Cc1cc2c(NC3CCN(C(=O)CC#N)CC3)cccc2n1CC(F)(F)F [Compound 747A] |
| + (+ = 0 μM ≤ SC150 < 0.05 μM) | COc1cc(S(N)(=O)=O)ccc1NCC#Cc1cc2c(NC3CCN(C(=O)CO)CC3)cccc2n1CC(F)(F)F [Compound 748A] |
| + (+ = 0 μM ≤ SC150 < 0.05 μM) | COc1cc(S(N)(=O)=O)ccc1NCC#Cc1cc2c(NC3CCN(C(C)=O)CC3)cccc2n1CC(F)(F)F [Compound 749A, 4-[(3-{4-[(1-acetylpiperidin-4-yl)amino]-1-(2,2,2-trifluoroethyl)-1H-indol-2-yl}prop-2-yn-1-yl)amino]-3-methoxybenzene-1-sulfonamide] |
| + (+ = 0 μM ≤ SC150 < 0.05 μM) | COc1cc(S(C)(=O)=O)ccc1NCC#Cc1cc2c(NC3CCN(C(=O)CN(C)C)CC3)cccc2n1CC(F)(F)F [Compound 750A] |
| + (+ = 0 μM ≤ SC150 < 0.05 μM) | COc1cc(S(N)(=O)=O)ccc1NCC#Cc1cc2c(NC3CCN(C(=O)CN(C)C)CC3)cccc2n1CC(F)(F)F [Compound 751A] |
| + (+ = 0 μM ≤ SC150 < 0.05 μM) | COc1cc(S(C)(=O)=O)ccc1NCC#Cc1cc2c(NC3CCN(C(=O)C(C)C)CC3)cccc2n1CC(F)(F)F [Compound 752A] |
| + (+ = 0 μM ≤ SC150 < 0.05 μM) | COc1cc(S(N)(=O)=O)ccc1NCC#Cc1cc2c(NC3CCN(C(=O)C(C)C)CC3)cccc2n1CC(F)(F)F [Compound 753A] |
| + (+ = 0 μM ≤ SC150 < 0.05 μM) | COc1cc(S(=O)(=O)N(C)C)ccc1NCC#Cc1cc2c(NC3CCN(C(C)=O)CC3)cccc2n1CC(F)(F)F [Compound 755A, 4-[(3-{4-[(1-acetylpiperidin-4-yl)amino]-1-(2,2,2-trifluoroethyl)-1H-indol-2-yl}prop-2-yn-1-yl)amino]-3-methoxy-N,N-dimethylbenzene-1-sulfonamide] |
| + (+ = 0 μM ≤ SC150 < 0.05 μM) | CCC(=O)N1CCC(Nc2cccc3c2cc(C#CCNc2ccc(S(C)(=O)=O)cc2OC)n3CC(F)(F)F)CC1 [Compound 756A] |
| + (+ = 0 μM ≤ SC150 < 0.05 μM) | CCC(=O)N1CCC(Nc2cccc3c2cc(C#CCNc2ccc(S(N)(=O)=O)cc2OC)n3CC(F)(F)F)CC1 [Compound 757A] |
